The record followed here is patent US12629374B2, “Antimalarial agents” (Merck Sharp & Dohme LLC, priority 2020, dated 2026).

For one test, the system named is ring stage parasites. Kind of test: Parasite growth potency assay, 72 hours, LDH readout. The format is cell-based. The following applies: 72 h, parasite growth measured by LDH assay after 72 hours at 37° C.; 0.7% rings, 2% haematocrit; read-out: EC50. The gist of the method: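 Parasite growth was quantified by LDH assay after a −80 °C freeze-thaw. Before that, compound was incubated for 72 h at 37 °C under humidified gas with ring-stage cultures adjusted to 0.7% parasitemia and 2% haematocrit in serum- and albumax-supplemented RPMI-Hepes.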
With `CCC1(CC)CC(=O)N([C@H](CCOC(F)F)c2cccc(C(=O)N[C@@H]3c4ccccc4C[C@@]3(C)O)c2)C(=N)N1` [Example 158A, 3-[1-(4,4-diethyl-2-imino-6-oxo-hexahydropyrimidin-1-yl)-3-(difluoromethoxy)propyl]-N-[(1R,2R)-2-hydroxy-2-methyl-indan-1-yl]benzamide], the EC50 (usually the concentration at which the effect is half-maximal) came out at 2.6 nM.

On to `CCC[C@H](c1cncc(C(=O)N[C@@H]2c3ccccc3C[C@H]2O)c1)N1C(=N)NC(CC)(CC)CC1=O` [Example 57, [4,4-diethyl-1-[1-[5-[[(1R,2R)-2-hydroxyindan-1-yl]carbamoyl]pyridin-1-ium-3-yl]butyl]-6-oxo-hexahydropyrimidin-2-ylidene]ammonium; 2,2,2-trifluoroacetate], for which the concentration for a half-maximal effect (EC50) was determined as 0.6 nM.

Consider `CCC1(CC)CC(=O)N(Cc2cc(F)cc(C(=O)N[C@H]3CCOc4ccccc43)c2)C(=N)N1` [Example 12, [1-[[3-[[(4S)-chroman-4-yl]carbamoyl]-5-fluoro-phenyl]methyl]-4,4-diethyl-6-oxo-hexahydropyrimidin-2-ylidene]ammonium; 2,2,2-trifluoroacetate], for which the EC50 worked out at 1.4 nM. The same measure, in the same setting: the same measure for `CC(C)[C@]1(C)CC(=O)N(Cc2cccc(C(=O)NC3CC(C)(C)Oc4ccccc43)c2)C(=N)N1` (stereo partly drawn) [Example 79, [(4S)-1-[[3-[(2,2-dimethylchroman-4-yl)carbamoyl]phenyl]methyl]-4-isopropyl-4-methyl-6-oxo-hexahydropyrimidin-2-ylidene]ammonium; 2,2,2-trifluoroacetate]: 2.1 nM; for `CCC1(CC)CC(=O)N(C(c2cncc(C(=O)N[C@H]3CC(C)(C)Oc4ccccc43)c2)c2cncs2)C(=N)N1` (stereo partly drawn) [Example 105A, [1-[[5-[[(4S)-2,2-dimethylchroman-4-yl]carbamoyl]pyridin-1-ium-3-yl]-thiazol-5-yl-methyl]-4,4-diethyl-6-oxo-hexahydropyrimidin-2-ylidene]ammonium; 2,2,2-trifluoroacetate]: 0.5 nM.

Consider `CCC1(CC)CC(=O)N([C@H](C)c2cccc(C(=O)N[C@@H]3c4ccccc4C[C@H]3O)c2)C(=N)N1` [Example 33, [4,4-diethyl-1-[1-[3-[[(1R,2R)-2-hydroxyindan-1-yl]carbamoyl]phenyl]ethyl]-6-oxo-hexahydropyrimidin-2-ylidene]ammonium; 2,2,2-trifluoroacetate], for which the EC50 came to 2.8 nM. On the same count and under the same terms, the same measure for `CC[C@@H](c1cccc(C(=O)N[C@@H]2c3ccccc3OC(C)(C)[C@H]2O)c1)N1C(=N)NC(CC)(CC)CC1=O` [Example 207B, [4,4-diethyl-1-[1-[3-[[(3S,4R)-3-hydroxy-2,2-dimethyl-chroman-4-yl]carbamoyl]phenyl]propyl]-6-oxo-hexahydropyrimidin-2-ylidene]ammonium; 2,2,2-trifluoroacetate]: 72 nM; for `CCC1(CC)CC(=O)N(C(CCOC)c2ccc(C(F)(F)F)c(C(=O)N[C@@H]3c4ccccc4C[C@H]3O)c2)C(=N)N1` (stereo partly drawn) [Example 239, 5-[1-(4,4-diethyl-2-imino-6-oxo-hexahydropyrimidin-1-yl)-3-methoxy-propyl]-N-[(1R,2R)-2-hydroxyindan-1-yl]-2-(trifluoromethyl)benzamide]: 3.6 nM; for `CCC1(CC)CC(=O)N([C@H](CCOC)c2cccc(C(=O)N[C@@H]3c4cc(F)ccc4C[C@H]3O)c2)C(=N)N1` [Example 170, [4,4-diethyl-1-[(1R)-1-[3-[(6-fluoro-2-hydroxy-indan-1-yl)carbamoyl]phenyl]-3-methoxy-propyl]-6-oxo-hexahydropyrimidin-2-ylidene]ammonium; 2,2,2-trifluoroacetate]: 0.7 nM. Still for that read-out and setting: the same measure for `CCC1(CC)CC(=O)N([C@@H](c2cccc(C(=O)N[C@H]3CCOc4ccccc43)c2)c2cccc(S(C)(=O)=O)c2)C(=N)N1` [Example 123A, [1-[[3-[[(4S)-chroman-4-yl]carbamoyl]phenyl]-(3-methylsulfonylphenyl)methyl]-4,4-diethyl-6-oxo-hexahydropyrimidin-2-ylidene]ammonium; 2,2,2-trifluoroacetate]: 1.9 nM; for `CCC1(CC)CC(=O)N(Cc2cccc(C(=O)N[C@H]3CCOc4ccc(Cl)cc43)c2)C(=N)N1` (stereo in doubt) [Example 215B, N-(6-chlorochroman-4-yl)-3-[(4,4-diethyl-2-imino-6-oxo-hexahydropyrimidin-1-yl)methyl]benzamide]: 3.7 nM; for `CCC1(CC)CC(=O)N([C@H](CCOC)c2cccc(C(=O)N[C@@H]3c4ccccc4OC[C@H]3O)c2)C(=N)N1` [Example 152B, [4,4-diethyl-1-[(1R)-1-[3-[[(3S,4R)-3-hydroxychroman-4-yl]carbamoyl]phenyl]-3-methoxy-propyl]-6-oxo-hexahydropyrimidin-2-ylidene]ammonium; 2,2,2-trifluoroacetate]: 2 nM.

Turning to `COCC[C@H](c1cccc(C(=O)N[C@H]2CC(C)(C)Oc3ccccc32)c1)N1C(=N)NC(C)(C)CC1=O` [Example 177, [1-[(1R)-1-[3-[[(4S)-2,2-dimethylchroman-4-yl]carbamoyl]phenyl]-3-methoxy-propyl]-4,4-dimethyl-6-oxo-hexahydropyrimidin-2-ylidene]ammonium; 2,2,2-trifluoroacetate], the EC50 came out at 2.1 nM.

Consider `CC[C@]1(CC(C)C)CC(=O)N(Cc2cc(F)cc(C(=O)N[C@H]3CCOc4ccccc43)c2)C(=N)N1` [Example 46, [(4S)-1-[[3-[[(4S)-chroman-4-yl]carbamoyl]-5-fluoro-phenyl]methyl]-4-ethyl-4-isobutyl-6-oxo-hexahydropyrimidin-2-ylidene]ammonium; 2,2,2-trifluoroacetate], for which the EC50 was 10.4 nM.

For `CC[C@]1(c2ccccc2)CC(=O)N(Cc2cc(F)cc(C(=O)N[C@H]3CCOc4ccccc43)c2)C(=N)N1` [Example 52, [(4R)-1-[[3-[[(4S)-chroman-4-yl]carbamoyl]-5-fluoro-phenyl]methyl]-4-ethyl-6-oxo-4-phenyl-hexahydropyrimidin-2-ylidene]ammonium; 2,2,2-trifluoroacetate], the EC50 was 20.1 nM. For the molecule `CCC[C@@H](c1cc(C(=O)N[C@H]2CCOc3ccccc32)ccn1)N1C(=N)NC(CC)(CC)CC1=O` [Example 49B, [1-[1-[4-[[(4S)-chroman-4-yl]carbamoyl]pyridin-1-ium-2-yl]butyl]-4,4-diethyl-6-oxo-hexahydropyrimidin-2-ylidene]ammonium; 2,2,2-trifluoroacetate], the EC50 was determined as 85 nM. Still for that read-out and setting: the same measure for `CC(C)[C@]1(C)CC(=O)N(Cc2cccc(C(=O)N[C@H]3CCc4ccccc43)c2)C(=N)N1` [Example 75, [(4S)-1-[[3-[[(1S)-indan-1-yl]carbamoyl]phenyl]methyl]-4-isopropyl-4-methyl-6-oxo-hexahydropyrimidin-2-ylidene]ammonium; 2,2,2-trifluoroacetate]: 66.5 nM.

Still in this test, the particulars now being: parasite growth measured by LDH assay after 72 hours at 37° C.; 0.7% rings, 2% haematocrit; read-out: EC50.
`CCC1(CC)CC(=O)N(C(CC(OC)C(F)(F)F)c2cccc(C(=O)N[C@@H]3c4ccccc4C[C@H]3O)c2)C(=N)N1` (single isomer, unassigned) [Example 238B]: the EC50 came out at 67.5 nM.

Regarding `CCC1(CC)CC(=O)N([C@@H](c2cccc(C(=O)N[C@@H]3CC(C)(C)Oc4ccccc43)c2)c2cncs2)C(=N)N1` (stereo in doubt) [Example 90B, 3-[(4,4-diethyl-2-imino-6-oxo-hexahydropyrimidin-1-yl)-thiazol-5-yl-methyl]-N-(2,2-dimethylchroman-4-yl)benzamide], the EC50 worked out at 0.5 nM. Turning to `COCC[C@H](c1cccc(C(=O)N[C@@H]2c3ccccc3C[C@@]2(C)O)c1)N1C(=N)NC(C)(C)CC1=O` [Example 166A, N-[(1R,2R)-2-hydroxy-2-methyl-indan-1-yl]-3-[(1R)-1-(2-imino-4,4-dimethyl-6-oxo-hexahydropyrimidin-1-yl)-3-methoxy-propyl]benzamide], the EC50 came out at 52.1 nM. Still for that read-out and setting: the same measure for `CCC[C@H](c1cccc(C(=O)N[C@@H]2c3ccccc3OC[C@]2(C)O)c1)N1C(=N)NC(CC)(CC)CC1=O` [Example 163B, 3-[(1R)-1-(4,4-diethyl-2-imino-6-oxo-hexahydropyrimidin-1-yl)butyl]-N-[(3R,4R)-3-hydroxy-3-methyl-chroman-4-yl]benzamide]: 0.4 nM; for `CCC1(CC)CC(=O)N([C@H](CCOC)c2cc(F)cc(C(=O)N[C@@H]3c4ccccc4CC3(C)O)c2)C(=N)N1` (stereo in doubt) [Example 144D, 3-[1-(4,4-diethyl-2-imino-6-oxo-hexahydropyrimidin-1-yl)-3-methoxy-propyl]-5-fluoro-N-(2-hydroxy-2-methyl-indan-1-yl)benzamide]: 0.9 nM; for `CCC1(C)CC(=O)N([C@H](CCOC)c2cccc(C(=O)N[C@@H]3c4ccccc4C[C@@]3(C)O)c2)C(=N)N1` (stereo partly drawn) [Example 196C, 3-[(1R)-1-(4-ethyl-2-imino-4-methyl-6-oxo-hexahydropyrimidin-1-yl)-3-methoxy-propyl]-N-[(1R,2R)-2-hydroxy-2-methyl-indan-1-yl]benzamide]: 7.4 nM.

The test is the same for the next values; noted with them: parasite growth measured by LDH assay after 72 hours at 37° C.; 0.7% rings, 2% haematocrit; trifluoroacetate; read-out: EC50.
Take `C#CCC[C@@H](c1cccc(C(=O)N[C@@H]2CC3(CCC3)Oc3ccccc32)c1)N1C(=N)NC(CC)(CC)CC1=O` (stereo in doubt) [Example 213, [4,4-diethyl-6-oxo-1-[(S)-1-[3-[[(4R)-spiro[chromane-2,1′-cyclobutane]-4-yl]carbamoyl]phenyl]pent-4-ynyl]hexahydropyrimidin-2-ylidene]ammonium; 2,2,2-trifluoroacetate]: the EC50 is 28.6 nM. On to `CCC1(CC)CC(=O)N(Cc2cccc(C(=O)NC3CC(C)(C)Oc4ccccc43)c2)C(=N)N1` (single isomer, unassigned) [Example 51A, [1-[[3-[(2,2-dimethylchroman-4-yl)carbamoyl]phenyl]methyl]-4,4-diethyl-6-oxo-hexahydropyrimidin-2-ylidene]ammonium; 2,2,2-trifluoroacetate], for which the EC50 was determined as 91.9 nM.
